Data as given in patent publication US12679836B2, “4H-pyrrolo[3,2-c]pyridin-4-one compounds” (Bayer Aktiengesellschaft, priority 2019, dated 2026).
Like-named read-outs stand apart in the source and are kept apart here.

Legend:
[1] = target: T1, EGFR with insertion of SVD between D770 and N771 (EGFR ins SVD) (Homo sapiens, UniProt P00533, DUP768-770); experiment: Exon20-Mutant-EGFR(D770_N771insSVD) kinase assay (TR-FRET); format: biochemical; conditions: 2 mM ATP, several values per example where printed
T1 construct: made in house; host or cells: Sf9 insect cells (baculovirus)
T1 sequence (P00533 with tags, fused parts or gaps DUP768-770): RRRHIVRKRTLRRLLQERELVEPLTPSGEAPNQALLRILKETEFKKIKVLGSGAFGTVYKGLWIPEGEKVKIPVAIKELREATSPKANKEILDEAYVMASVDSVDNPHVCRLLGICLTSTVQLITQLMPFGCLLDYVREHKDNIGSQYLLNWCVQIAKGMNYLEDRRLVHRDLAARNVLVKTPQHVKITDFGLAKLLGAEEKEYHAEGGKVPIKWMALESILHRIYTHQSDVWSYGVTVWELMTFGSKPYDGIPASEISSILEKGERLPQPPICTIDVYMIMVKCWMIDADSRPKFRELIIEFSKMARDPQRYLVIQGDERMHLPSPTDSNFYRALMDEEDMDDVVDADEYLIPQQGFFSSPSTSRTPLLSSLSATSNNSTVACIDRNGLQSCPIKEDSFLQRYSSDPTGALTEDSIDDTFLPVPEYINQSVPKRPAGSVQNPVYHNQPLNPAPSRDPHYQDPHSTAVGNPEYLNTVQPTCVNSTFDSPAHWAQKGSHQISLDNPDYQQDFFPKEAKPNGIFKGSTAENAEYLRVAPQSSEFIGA

Ba/F3-EGFR-WT cells = Ba/F3-EGFR-WT cells (Homo sapiens, UniProt P00533); experiment: Ba/F3 cell survival assay (Cell Titer-Glo), WT EGFR; format: cell-based; conditions: without IL-3, with 10 ng/mL EGF, 48 h; read-out: BA/F3 (wild type) IC50
Ba/F3-EGFR-WT cells, sequence (P00533 whole entry, stated change not applied): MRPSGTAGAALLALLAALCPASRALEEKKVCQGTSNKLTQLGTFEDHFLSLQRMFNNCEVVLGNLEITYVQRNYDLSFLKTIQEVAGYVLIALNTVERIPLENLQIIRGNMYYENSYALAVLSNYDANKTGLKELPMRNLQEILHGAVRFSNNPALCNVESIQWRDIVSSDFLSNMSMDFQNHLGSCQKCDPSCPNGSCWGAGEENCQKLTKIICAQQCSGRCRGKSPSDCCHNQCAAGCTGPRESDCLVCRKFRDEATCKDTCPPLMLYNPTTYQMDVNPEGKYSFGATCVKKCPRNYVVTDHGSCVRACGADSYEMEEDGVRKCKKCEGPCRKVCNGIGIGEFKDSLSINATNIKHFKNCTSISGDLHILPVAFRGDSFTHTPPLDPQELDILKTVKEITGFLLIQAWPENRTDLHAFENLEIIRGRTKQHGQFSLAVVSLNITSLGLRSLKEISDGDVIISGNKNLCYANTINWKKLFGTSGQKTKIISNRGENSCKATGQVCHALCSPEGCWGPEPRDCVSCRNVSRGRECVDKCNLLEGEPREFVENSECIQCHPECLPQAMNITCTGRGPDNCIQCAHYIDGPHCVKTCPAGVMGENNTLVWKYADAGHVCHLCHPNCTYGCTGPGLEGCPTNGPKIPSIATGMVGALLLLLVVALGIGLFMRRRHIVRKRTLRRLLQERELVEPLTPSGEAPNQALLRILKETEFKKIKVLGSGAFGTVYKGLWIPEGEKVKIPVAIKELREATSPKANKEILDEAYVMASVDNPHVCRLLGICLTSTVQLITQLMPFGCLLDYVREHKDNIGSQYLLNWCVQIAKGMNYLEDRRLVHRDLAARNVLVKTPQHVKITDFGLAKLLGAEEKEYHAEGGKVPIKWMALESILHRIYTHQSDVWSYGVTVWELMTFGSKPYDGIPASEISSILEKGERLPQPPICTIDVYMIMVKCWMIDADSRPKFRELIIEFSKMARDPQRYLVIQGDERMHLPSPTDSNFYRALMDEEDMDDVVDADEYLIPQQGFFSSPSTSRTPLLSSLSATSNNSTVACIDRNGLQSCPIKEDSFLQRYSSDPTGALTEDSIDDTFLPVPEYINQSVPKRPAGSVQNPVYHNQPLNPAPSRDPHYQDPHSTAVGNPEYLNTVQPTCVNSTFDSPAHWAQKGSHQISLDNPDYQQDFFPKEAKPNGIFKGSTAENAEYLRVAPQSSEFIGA
Protocol: (§1) 293T cells from ATCC were transfected with pBABEpuro expression constructs for WT EGFR or EGFR-insSVD and pCL-Eco packaging vector using Fugene-6 transfection reagent from Promega. Plates were incubated at 37° C. for 48 h. Retrovirus was harvested by filtering the media supernatant through a 0.45 μm filter.
(§2) Ba/F3 cells purchased from DSMZ were grown in RPMI+10% FBS+10 ng/mL IL-3 and infected with filtered retroviral supernatant at a 1:2 dilution. Polybrene was added to a concentration of 8 μg/mL, plates were spun for 90 min, and incubated overnight at 37° C. 2 μg/mL puromycin was added to the infected cells 24 h after infection and cells were continually grown in the presence of puromycin and 10 ng/mL IL-3. Following stably expressing Ba/F3 cell lines were generated: Ba/F3-EGFR-WT, Ba/F3-EGFR-insSVD, (Ba/F3-vector-control).
(§3) For cell survival assays, Ba/F3 cells were grown to a density of 1-2 million cells per mL, spun down and resuspended in media without IL-3, and replated at a concentration 200,000-500,000 cells per mL. The cells ectopically expressing WT EGFR or EGFR-insSVD were plated with 10 ng/mL Millipore Culture grade EGF. The cells ectopically expressing pBABEpuro empty vector were plated with 10 ng/mL IL-3. 2 days later, cells were plated in 50 μL in a 384 well plate at a concentration of 4000 cells per well for cells assayed in the absence of IL-3 and 2000 cells per well for cells assayed in the presence of IL-3. 100 nL of compound was added to each well using a 100 nL pin head, and plates were incubated at 37° C. for 48 h.
(§4) Cell viability was measured by adding 20 μL of Cell Titer-Glo Luminescent Cell Viability Reagent diluted 1:3 in PBS. Plates were sealed with Perkin Elmer Top-Seal, inverted several times to mix, and immediately centrifuged at 1000 rpm for 2 min. Plates were incubated in low light conditions for 8-10 min and luminescence was measured.

Bub1 = target: T2, Bub1 (Homo sapiens, UniProt O43683); experiment: Bub1 TR-FRET high ATP kinase assay; format: biochemical; conditions: 2 mM ATP
T2 construct: catalytic domain of human Bub1 (amino acids 704-1085); His6 (N); made in house; host or cells: Hi5 insect cells
T2 sequence (O43683 704-1085): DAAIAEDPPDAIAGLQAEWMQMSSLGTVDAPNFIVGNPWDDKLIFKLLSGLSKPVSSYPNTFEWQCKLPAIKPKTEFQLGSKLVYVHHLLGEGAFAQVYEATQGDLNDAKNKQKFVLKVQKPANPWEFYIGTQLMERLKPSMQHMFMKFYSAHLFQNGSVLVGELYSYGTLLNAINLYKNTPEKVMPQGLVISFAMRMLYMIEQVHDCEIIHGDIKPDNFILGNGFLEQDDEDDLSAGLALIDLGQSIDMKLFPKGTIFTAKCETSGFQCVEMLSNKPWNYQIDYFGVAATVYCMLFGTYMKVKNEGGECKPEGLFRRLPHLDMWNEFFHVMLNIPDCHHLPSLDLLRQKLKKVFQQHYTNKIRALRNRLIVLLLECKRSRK
Source text: Bub1 High ATP Kinase Assay
Bub1-inhibitory activity of compounds of the present invention at a high ATP concentration was quantified employing the Bub1 TR-FRET high ATP kinase assay as described in the following paragraphs.
N-terminally His6-tagged recombinant catalytic domain of human Bub1 (amino acids 704-1085), expressed in insect cells (Hi5) and purified by Ni-NTA affinity chromatography and subsequent size exclusion chromatography, was used as enzyme. As substrate for the kinase reaction the biotinylated peptide biotin-Ahx-[…]—SEQ ID 7 (C-terminus in amid form) was used which can be purchased e.g. form the company Biosyntan (Berlin, Germany).

Ba/F3-EGFR-insSVD cells = Ba/F3-EGFR-insSVD cells (Homo sapiens, UniProt P00533, DUP768-770, cells depend on it); experiment: Ba/F3 cell survival assay (Cell Titer-Glo), EGFR-insSVD; format: cell-based; conditions: without IL-3, with 10 ng/mL EGF, 48 h; read-out: BA/F3 (insSVD) IC50
Ba/F3-EGFR-insSVD cells, sequence (P00533 with tags, fused parts or gaps DUP768-770): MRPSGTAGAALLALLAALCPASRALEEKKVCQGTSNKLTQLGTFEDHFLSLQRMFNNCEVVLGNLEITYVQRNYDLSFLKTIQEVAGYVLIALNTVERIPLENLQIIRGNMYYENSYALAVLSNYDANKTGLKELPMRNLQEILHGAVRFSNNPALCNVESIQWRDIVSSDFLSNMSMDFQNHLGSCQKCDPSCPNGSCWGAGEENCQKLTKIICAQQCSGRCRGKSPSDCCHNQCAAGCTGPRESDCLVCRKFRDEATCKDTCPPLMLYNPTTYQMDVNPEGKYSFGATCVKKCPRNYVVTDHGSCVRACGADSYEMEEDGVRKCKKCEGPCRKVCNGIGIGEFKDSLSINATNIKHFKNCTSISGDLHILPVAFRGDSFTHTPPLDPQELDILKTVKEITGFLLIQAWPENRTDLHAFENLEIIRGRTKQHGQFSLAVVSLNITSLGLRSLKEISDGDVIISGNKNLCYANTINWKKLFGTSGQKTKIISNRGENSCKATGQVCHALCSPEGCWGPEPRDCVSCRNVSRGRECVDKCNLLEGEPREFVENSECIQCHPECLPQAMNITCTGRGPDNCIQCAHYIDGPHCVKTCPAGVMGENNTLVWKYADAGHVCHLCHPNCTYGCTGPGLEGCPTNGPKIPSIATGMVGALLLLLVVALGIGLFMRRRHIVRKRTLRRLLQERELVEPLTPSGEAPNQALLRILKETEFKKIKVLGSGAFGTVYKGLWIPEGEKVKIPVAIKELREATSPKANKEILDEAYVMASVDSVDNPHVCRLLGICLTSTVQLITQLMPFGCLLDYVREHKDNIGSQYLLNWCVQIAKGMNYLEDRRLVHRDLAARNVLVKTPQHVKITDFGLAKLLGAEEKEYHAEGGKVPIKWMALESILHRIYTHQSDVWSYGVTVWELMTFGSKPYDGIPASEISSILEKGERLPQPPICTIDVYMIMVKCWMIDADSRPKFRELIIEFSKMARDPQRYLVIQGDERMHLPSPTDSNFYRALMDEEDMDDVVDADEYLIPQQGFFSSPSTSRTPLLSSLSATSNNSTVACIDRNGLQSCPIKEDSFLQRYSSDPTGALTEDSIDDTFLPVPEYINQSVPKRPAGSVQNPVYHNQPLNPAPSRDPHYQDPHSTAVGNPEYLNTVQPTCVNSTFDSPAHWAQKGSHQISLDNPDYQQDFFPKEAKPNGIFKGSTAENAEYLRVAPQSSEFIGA
Protocol: as §1, §2, §3, §4

[2] = read-out: Bub1 high ATP (2 mM) IC50 [mol/l]
[3] = Bub1 high ATP (2 mM) IC50 [mol/l]

CCc1c(F)cccc1Nc1c(-c2ccncc2OCC2COC(C)(C)CO2)[nH]c2c1C(=O)NCC2 (single isomer, unassigned) [Example 70, 2-(3-{[5,5-dimethyl-1,4-dioxan-2-yl]methoxy}pyridin-4-yl)-3-(2-ethyl-3-fluoroanilino)-1,5,6,7-tetrahydro-4H-pyrrolo[3,2-c]pyridin-4-one]
mutEGFR (D770_N771insSVD) kinase assay IC50 [1]: 0.000168 µM | GI50 (Ba/F3-EGFR-WT cells): 0.714 µM | IC50 (Bub1; [2]): > 20 µM | GI50 (Ba/F3-EGFR-insSVD cells): 0.0679 µM

COc1c(Cl)cccc1Nc1c(-c2ccncc2OCCC2COCCO2)[nH]c2c1C(=O)NCC2 (single isomer, unassigned) [Example 25, 3-(3-chloro-2-methoxyanilino)-2-{3-[2-(4-dioxan-2-yl)ethoxy]pyridin-4-yl}-1,5,6,7-tetrahydro-4H-pyrrolo[3,2-c]pyridin-4-one]
mutEGFR (D770_N771insSVD) kinase assay IC50 [1]: 0.000282 µM | GI50 (Ba/F3-EGFR-WT cells): 0.349 µM | IC50 (Bub1; [3]): > 20 µM | GI50 (Ba/F3-EGFR-insSVD cells): 0.0183 µM

COc1c(Cl)cccc1Nc1c(-c2ccncc2OCC2CN(C)CCO2)[nH]c2c1C(=O)NCC2 (single isomer, unassigned) [Example 17, 3-(3-chloro-2-methoxyanilino)-2-(3-{[4-methylmorpholin-2-yl]methoxy}pyridin-4-yl)-1,5,6,7-tetrahydro-4H-pyrrolo[3,2-c]pyridin-4-one]
mutEGFR (D770_N771insSVD) kinase assay IC50 [1]: 0.000156 µM | GI50 (Ba/F3-EGFR-WT cells): 0.231 µM | IC50 (Bub1; [2]): > 20 µM | GI50 (Ba/F3-EGFR-insSVD cells): 0.00953 µM

COc1c(F)cccc1Nc1c(-c2ccncc2OC[C@@H]2CN(CC(F)F)CCO2)[nH]c2c1C(=O)NCC2 [Example 22, 2-(3-{[(2S)-4-(2,2-difluoroethyl)morpholin-2-yl]methoxy}pyridin-4-yl)-3-(3-fluoro-2-methoxyanilino)-1,5,6,7-tetrahydro-4H-pyrrolo[3,2-c]pyridin-4-one]
mutEGFR (D770_N771insSVD) kinase assay IC50 [1]: 0.000153 µM | GI50 (Ba/F3-EGFR-WT cells): 0.544 µM | IC50 (Bub1; [3]): > 20 µM | GI50 (Ba/F3-EGFR-insSVD cells): 0.0419 µM

COc1c(Cl)cccc1Nc1c(-c2ccncc2OC[C@H]2COCCO2)[nH]c2c1C(=O)NCC2 (single isomer, unassigned) [Example 3]
mutEGFR (D770_N771insSVD) kinase assay IC50 [1]: 0.000137 µM | GI50 (Ba/F3-EGFR-WT cells): 0.755 µM | IC50 (Bub1; [3]): 3.33 µM | GI50 (Ba/F3-EGFR-insSVD cells): 0.0228 µM

COc1c(Cl)cccc1Nc1c(-c2ccncc2OCCC2COCCO2)[nH]c2c1C(=O)NCC2 (stereo not drawn) [Example 24, 3-(3-chloro-2-methoxyanilino)-2-{3-[2-(4-dioxan-2-yl)ethoxy]pyridin-4-yl}-1,5,6,7-tetrahydro-4H-pyrrolo[3,2-c]pyridin-4-one]
mutEGFR (D770_N771insSVD) kinase assay IC50 [1]: 0.000261 µM | GI50 (Ba/F3-EGFR-WT cells): 0.444 µM | IC50 (Bub1; [3]): 1.94 µM | GI50 (Ba/F3-EGFR-insSVD cells): 0.0346 µM

CCc1c(Cl)cccc1Nc1c(-c2ccncc2OC[C@H]2CN(C)CCO2)[nH]c2c1C(=O)NCC2 [Example 55, 3-(3-chloro-2-ethylanilino)-2-(3-{[(2R)-4-methylmorpholin-2-yl]methoxy}pyridin-4-yl)-1,5,6,7-tetrahydro-4H-pyrrolo[3,2-c]pyridin-4-one]
mutEGFR (D770_N771insSVD) kinase assay IC50 [1]: 0.000257 µM | GI50 (Ba/F3-EGFR-WT cells): 1.31 µM | IC50 (Bub1; [3]): 7.59 µM | GI50 (Ba/F3-EGFR-insSVD cells): 0.124 µM

COc1c(Cl)cccc1Nc1c(-c2ccncc2OCC2COCCO2)[nH]c2c1C(=O)NCC2 (stereo not drawn) [Example 1, 3-(3-chloro-2-methoxyanilino)-2-{3-[(1,4-dioxan-2-yl)methoxy]pyridin-4-yl}-1,5,6,7-tetrahydro-4H-pyrrolo[3,2-c]pyridin-4-one]
mutEGFR (D770_N771insSVD) kinase assay IC50 [1]: 0.000159 µM | GI50 (Ba/F3-EGFR-WT cells): 0.366 µM | IC50 (Bub1; [3]): 3.36 µM | GI50 (Ba/F3-EGFR-insSVD cells): 0.0098 µM

COc1c(F)cccc1Nc1c(-c2ccncc2OC[C@H]2COCCN2C)[nH]c2c1C(=O)NCC2 [Example 37, 3-(3-fluoro-2-methoxyanilino)-2-(3-{[(3R)-4-methylmorpholin-3-yl]methoxy}pyridin-4-yl)-1,5,6,7-tetrahydro-4H-pyrrolo[3,2-c]pyridin-4-one]
mutEGFR (D770_N771insSVD) kinase assay IC50 [1]: 0.0004 µM | GI50 (Ba/F3-EGFR-WT cells): 0.348 µM | IC50 (Bub1; [3]): 19 µM | GI50 (Ba/F3-EGFR-insSVD cells): 0.0357 µM
